From patent EP0322391A1, “New phenylalkylamine derivatives” (priority 1987, dated 1989) come the findings set out here.

Like-named read-outs stand apart in the source and are kept apart here.

This assay relates to OTMN-induced tremor in rat. Description: Potentiation of oxotremorine (OTMN)-induced tremor in rat (potentiation of cholinergic responses). In kind it is in vivo. The conditions noted are these: for minimal effective dose: Rattus norvegicus, ip, read-out: Potentiation of OTMN-induced tremor in rat. On the procedure:
Potentiation of cholinergic responses
Male rats (Sprague Dawley Alab Laboratorietjänst AB, Sollentuna, Sweden) weighing 150-180 g, 35-40 days of age, were used. The animals were allowed free access to food (R3, Ewos AB, Södertälje, Sweden) and water until the start of the experiments. The test compounds were injected intraperitoneally (i.p.) 30 minutes before injection of the muscarine agonist oxotremorine (OTM) into the neck (s.c.). Tremor intensity was assessed visually for a 60 minutes period following the injection of OTMN in rat housed in Macrolon cages (25x25x30 cm) (three per cage). The threshold dose of OTMN for eliciting tremor in rat is about 200 µg/kg.
Tremor intensity was scored using the following rating scale: 0 = no tremor; 1 = slight tremor (moderate, discontinuous tremor; 2 = strong tremor (intense, continuous tremor involving the whole body). The animals were scored 5, 10, 15, 30 and 60 minutes after injection of OTMN. The tremor was scored for a period of 30 seconds.
The values for each observation were summed over the entire observation period (5-60 minutes) and their median values for each group were calculated (total median score). Mann-Whitney U-test (two-tailed) was used to determine differences between the control OTMN group and test groups receiving the compounds + OTMN. […].
The lowest dose causing a significant (p<0.05) potentiation of the OTMN response was determined from log-dose response curves.

Setting [1] is: lowest dose causing a significant (p<0.05) potentiation of the OTMN response, from log-dose response curves, test compound i.p. 30 minutes before oxotremorine s.c., male Sprague Dawley rats, tremor scored 5-60 minutes.

With `CCC(N)CC(=O)C(C)(C)Cc1ccc(F)cc1` (centres unmarked) [Example 6, 5-amino-2,2-dimethyl-1-(4-fluorophenyl)-3-heptanone], the “Potentiation of OTMN-induced tremor in rat” value under setting [1] stood at 0.63 mg/kg.

For the molecule `CCC(N)CC(=O)C(C)(C)Cc1ccc(F)cc1` (centres unmarked) [Example 5, 5-amino-2,2-dimethyl-1-(4-fluorophenyl)-3-heptanone], under setting [1], the minimal effective dose was 0.63 mg/kg.

For the molecule `CC(C)C(N)CC(O)C(C)(C)Cc1ccc(F)cc1.O=C(O)C(=O)O` (centres unmarked) [Example 8, 5-Amino-1-(4-fluorophenyl)-2,2,6-trimethyl-3-heptanol oxalate], under setting [1], the minimal effective dose was found to be 10 mg/kg.

Consider `CC(N)C(=O)OC(C)(C)Cc1ccc(Cl)cc1` (centres unmarked) [Alaproclate, alaproclate, reference compound], for which the minimal effective dose is 5 mg/kg.

For the molecule `CCC(N)CC(=O)C(C)(C)Cc1ccc(F)cc1.O=C(O)C(=O)O` (racemic) [Example 1, 5-amino-2,2-dimethyl-1-(4-fluorophenyl)-3-heptanone oxalate], under setting [1], the minimal effective dose is 0.63 mg/kg.

With `CC(C)C(N)CC(=O)C(C)(C)Cc1ccc(F)cc1.O=C(O)C(=O)O` (centres unmarked) [Example 12, 5-Amino-1-(4-fluorophenyl)-2,2,6-trimethyl-3-heptanone oxalate], under setting [1], the minimal effective dose is 2.5 mg/kg.

On to `CCC(N)CC(O)C(C)(C)Cc1ccc(F)cc1.O=C(O)C(=O)O` (centres unmarked) [Example 7, 5-Amino-2,2-dimethyl-1-(4-fluorophenyl)-3-heptanol oxalate], for which the minimal effective dose under setting [1] was 2.5 mg/kg.

In the case of `CCCCCC(N)CC(O)C(C)(C)Cc1ccc(F)cc1.O=C(O)C(=O)O` (centres unmarked) [Example 9, 5-Amino-2,2-dimethyl-1-(4-fluorophenyl)-3-decanol oxalate], the minimal effective dose under setting [1] came to 5 mg/kg.
